Reference: US12357621B2, “BET inhibitors as a treatment for myelofibrosis” (Impact Biomedicines, Inc., priority 2021, dated 2025)
Read-outs that look alike come from different tables or passages of the source. Each block holds one molecule with its values, some of them ahead of it.

Assays:
[1] = test system: primary human myelofibrosis samples; assay: Colony formation assay in primary myelofibrosis samples (Example 2); format: cell-based; details: for IC50: Homo sapiens
Experimental: (§1) Bone marrow or peripheral blood mononuclear cells from myelofibrosis (MF) patients were directly seeded in semisolid Methocult media (H3404) with Compound (I) alone, (at concentrations ranging from 1.25 to 10 nM) or in combination with Fed (at 100 and 300 nM) or Rux (at 30 and 100 nM). Treatment was added at the beginning and maintained throughout the 14-day incubation period without compound washout.
(§2) Colony forming unit (CFU) data acquisition and automatic colony counting were performed using the STEMvision device and software (StemCell Technologies, Vancouver, Canada). Counting corrections according to standard criteria were done manually by a trained user. GraphPad Prism 7 was used for data plotting and analysis.

[2] = test system: cell models expressing mutationally active JAK2V617F or FLT3ITD; details: cited from earlier work
[3] = test system: mouse models of JAK2V617F-driven myeloproliferative disease; details: in vivo; cited from earlier work
[4] = 125 mg QD; clinical studies; cited from earlier work
[5] = test system: HEL92.1.7 cells; assay: CellTiter-Glo proliferation/viability assay, single agent and JAKi combination (Example 1); format: cell-based; details: single agent; for IC50: 3 days incubation, CTG
Experimental: (§3) HEL92.1.7 and SET-2 are post-MPN secondary acute myeloid leukemia (sAML) cell lines that harbor the JAK2 V617F mutation and serve as cell line models of the malignant clones driving disease in MPNs.
(§4) HEL92.1.792.1.7 (post-MPN sAML), a homozygous mutant (V617F), SET-2 (post-MPN sAML), a heterozygous mutant (V617F), were cultured in Roswell Park Memorial Institute (RPMI) 1640 medium (ATCC) supplemented with 10% or 20% fetal b ovine serum (FBS) (Corning) for HEL92.1.792.17 or SET-2 respectively, 2 mM L-glutamine (L-glu) (Gibco), and non-essential amino acid 1× (NEAA) cell culture supplement (Gibco). WI-38 primary lung fibroblastWI-38 were cultured in Eagle's Minimum Essential Medium (EMEM) (ATCC) with 10% FBS, 2 mM L-glu, and 1× NEAA.
(§5) CellTiter-Glo® (CTG), a luminescent dye that measures adenosine-5′-triphosphate (ATP), was used to quantify the cell proliferation in the 3 cell types in duplicate. Compound (I) was pre-spotted into 384-well plates (diluted in final dimethyl sulfoxide [DMSO] concentration of 0.1% for assay volume of 50 μL). A 10-point dose-response starting at […] with a 4-fold dilution that included one DMSO point and nine drug points was tested for each cell line. The JAK inhibitors (JAKi) Rux and Fed were also pre-spotted at concentrations of 0, 0.03, 0.1, 0.3, and 0.6 μM and HEL92.1.7 constant for each 10-point the Compound (I) dose-response curve (DRC) to produce five compounds of formula (I) DRCs for each JAKi in each cell line.
(§6) A cell suspension volume of 50 μL at their respective seeding densities was added to 384-well plates containing Compound (I) plus JAKi. The effect of Compound (I) single agent or JAKi combination on the proliferation/viability of cells was assessed after 3 days of incubation. Twenty-five microliters of CTG per well was then dispensed to the cell suspension, and ATP released by viable cells was measured after a 30-minute incubation as relative luminescence units (RLU) using an EnVision plate reader (PerkinElmer, Covina, CA). Cytotoxicity was indicated by a lower ATP level in the media after 3-day drug treatment compared to the Day 0 ATP level. Day 0 CTG was read for HEL92.1. and SET-2 suspension cell lines while the Day 0 CTG read for WI-38 could not be read because it is an adherent cell line.
(§7) Percent growth (% Growth) was calculated with the equation [% Growth=(Day 5 RLU—Day 0 RLU)/(Day 0 RLU)] while percent DMSO (% DMSO) was calculated with the equation [% DMSO=(Treatment RLU/DMSO RLU)×100]. All data was analyzed by GraphPad Prism 7 with the XY analyses nonlinear regression curve fit using the parameters for “log(inhibitor) vs. response—Variable slope (four parameters).” Cytotoxicity was called if any part of the DRC CTG signal went below the Day 0 CTG read and cytostatic effects were indicated by the DRC CTG signal staying above the Day 0 line.
(§8) Combination analysis was performed with software Combenefit version 2.021. Combination matrix plots describing additivity effects were generated with the Highest Single-Agent (HSA) model, combination matrix plots describing synergy effects were generated with the Bliss model, and the HSA and Bliss scores for each combination matrix plot were tabulated. An arbitrary cut off-of 10 for HSA and Bliss scores was used to reflect significant additivity and synergy, respectively. […]

[6] = test system: SET-2 cells; assay: as above; format: cell-based; details: single agent
Experimental: as §3, §4, §5, §6, §7, §8

[7] = test system: bone marrow CD34+ cells from healthy volunteers; assay: Colony-forming assay with normal hematopoietic progenitors (Example 2); format: cell-based; details: Homo sapiens, 336 h, healthy donors, 14 days
Experimental: as §1
To test the effects of Compound (I) on the functionality of normal hematopoietic progenitors, colony-forming assays were also done with bone marrow CD34^+ cells from healthy volunteers using the same conditions of treatment as described for MF samples.
as §2

[8] = test system: HEL92.1.7 cells; assay: CellTiter Glo cell viability assay (Example 5); format: cell-based; details: for IC50: Homo sapiens
Experimental: (§9) Cells were seeded in 96-well plates at 10,000 cells per well in 100 μL of media containing either 0.1% DMSO or varying concentrations of drug. Cell viability was determined 3 days and 5 days later via the CellTiter GloLuminescent Cell Viability Assay from Promega (Madison, WI) according to the manufacturer's protocol. Specifically, 50 μL of reagent was added to each well and plates were incubated for 10 minutes in the dark to stabilize the luminescent signal. Luminescence was then detected using a chemiluminescence detection system (EnVision Multimode Microplate Reader; PerkinElmer).

[9] = test system: SET-2 cells; assay: CellTiter Glo cell viability assay (Example 5); format: cell-based; details: for IC50: Homo sapiens
Experimental: as §9

[10] = First-in-human PK study of Compound (I) (Example 6); format: in vivo; details: for Cmax: Cycle 2 Day 5, 5 days on/2 days off, read-out: Cmax Cycle 2 Steady State (geometric mean)
Experimental: A first-in-human study was conducted on Compound (I) with select advanced tumors and hematologic malignancies. PK data was available from 65 subjects across 5 doses and 3 schedules. Intensive samples were collected on Cycle 1 Day 1 and Cycle 2 Day 5, Day 7, or Day 14 based on dosing schedule (5 days on/2 days off, 7 days on/14 days off, and 14 days on/7 days off).

SMILES: Cc1cnc(Nc2ccc(OCCN3CCCC3)cc2)nc1Nc1cccc(S(=O)(=O)NC(C)(C)C)c1 [fedratinib]
IC50 ([1]; sample MF 18 (JAK2), fedratinib alone, read-out: IC50 FEDR): 146 nM | IC50 ([1]; sample MF 22 (WT), fedratinib alone, read-out: IC50 FEDR): 309 nM | IC50 ([1]; sample MF 29 (JAK2), fedratinib alone, read-out: IC50 FEDR): 472 nM | IC50 ([1]; sample MF 31 (CALR), fedratinib alone, read-out: IC50 FEDR): 908 nM | IC50 ([1]; sample MF 33 (CALR), fedratinib alone, read-out: IC50 FEDR): 930 nM | IC50 ([1]; sample MF 38 (WT), fedratinib alone, read-out: IC50 FEDR): 931 nM | IC50 ([1]; sample MF 54 (JAK2), fedratinib alone, read-out: IC50 FEDR): 381 nM | IC50 ([1]; sample MF 63 (CALR), fedratinib alone, read-out: IC50 FEDR): 779 nM | IC50 ([1]; sample MF 76 (JAK2), fedratinib alone, read-out: IC50 FEDR): > 1000 nM | IC50 ([1]; sample MF 77 (JAK2), fedratinib alone, read-out: IC50 FEDR): 695 nM | apoptotic cell death [2]: induced | cell proliferation [2]: inhibited | phosphorylation of STAT3 and STAT5 proteins [2]: reduced | phosphorylation of STAT3/5 [3]: blocked | survival, WBC counts, hematocrit, splenomegaly, and fibrosis [3]: improved

SMILES: Cc1noc2c1-c1ccccc1C(c1ccc(Cl)cc1)=N[C@H]2CC(N)=O [CPI-0610]
Cmax [4]: 4 µM | T1/2 [4]: 16 h

IC50 ([1]; 336 h, range among 10 primary human myelofibrosis samples, 14 days, read-out: IC50 values for inhibition of colonies): 1.25 to 4.46 nM | IC50 ([1]; 336 h, sample MF 18 (JAK2), single agent, colony formation 14 days, read-out: IC50 Compound (I)): 1.58 nM | IC50 ([1]; 336 h, sample MF 22 (WT), single agent, colony formation 14 days, read-out: IC50 Compound (I)): 3.7 nM | IC50 ([1]; 336 h, sample MF 29 (JAK2), single agent, colony formation 14 days, read-out: IC50 Compound (I)): 2.56 nM | IC50 ([1]; 336 h, sample MF 31 (CALR), single agent, colony formation 14 days, read-out: IC50 Compound (I)): 2.02 nM | IC50 ([1]; 336 h, sample MF 33 (CALR), single agent, colony formation 14 days, read-out: IC50 Compound (I)): 4.46 nM | IC50 ([1]; 336 h, sample MF 38 (WT), single agent, colony formation 14 days, read-out: IC50 Compound (I)): 2.11 nM | IC50 ([1]; 336 h, sample MF 54 (JAK2), single agent, colony formation 14 days, read-out: IC50 Compound (I)): 1.25 nM | IC50 ([1]; 336 h, sample MF 63 (CALR), single agent, colony formation 14 days, read-out: IC50 Compound (I)): 2.6 nM | IC50 ([1]; 336 h, sample MF 76 (JAK2), single agent, colony formation 14 days, read-out: IC50 Compound (I)): 3.43 nM | IC50 ([1]; 336 h, sample MF 77 (JAK2), single agent, colony formation 14 days, read-out: IC50 Compound (I)): 1.27 nM | Cmax ([10]; dose 0.75 mg): 272 nM | Cmax ([10]; dose 1.25 mg): 577 nM | Cmax ([10]; dose 2.0 mg): 892 nM | Cmax ([10]; human, in vivo, dose 3.0 mg): 1200 nM | Cmax ([10]; human, in vivo, dose 4.5 mg): 1840 nM | half-life ([10]; in vivo, single dose, 5 days on/2 days off schedule, human, read-out: terminal half-life (converted)): ~2.67 days
SMILES: Cc1nnn(C)c1-c1cnc2c3ccc(C(C)(C)O)cc3n([C@H](c3ccccc3)C3CCOCC3)c2c1 [Compound (I)]
IC50 ([5]; Homo sapiens, HEL 92.1.7, 72 h): 6.2 nM | IC50 [5]: 5.6 nM | cytotoxic vs cytostatic effect ([5]; CTG signal vs Day 0): cytotoxic effects | IC50 ([6]; Homo sapiens, 72 h, 3 days incubation, CTG): 1.9 nM | cytotoxic vs cytostatic effect ([6]; CTG signal vs Day 0): cytotoxic effects | therapeutic index (TI) ([1]; in 7 out of 10 MF samples, ratio of IC50 in MF sample and average IC50 in normal bone marrow CD34+ cells): > 1 fold | IC50 ([7]; read-out: IC50 for inhibition of BFU-E): ~2.3 nM | IC50 ([7]; CFU-GM, read-out: IC50 for inhibition of CFU-GM): ~3 nM | IC50 ([8]; HEL 92.1.7, 72 h, Day 3, read-out: single agent IC50): 15 nM | IC50 ([8]; HEL 92.1.7, 120 h, Day 5, read-out: single agent IC50): 19 nM | activity compared to CPI-0610 ([8]; viability): better activity | IC50 ([9]; 72 h, Day 3, read-out: single agent IC50): 2.8 nM | IC50 ([9]; 120 h, Day 5, read-out: single agent IC50): 2.4 nM | activity compared to CPI-0610 ([9]; viability): better activity

IC50 ([1]; sample MF 18 (JAK2), ruxolitinib alone, read-out: IC50 RUX): 35.5 nM | IC50 ([1]; sample MF 22 (WT), ruxolitinib alone, read-out: IC50 RUX): 212 nM | IC50 ([1]; sample MF 29 (JAK2), ruxolitinib alone, read-out: IC50 RUX): 212 nM | IC50 ([1]; sample MF 31 (CALR), ruxolitinib alone, read-out: IC50 RUX): 284 nM | IC50 ([1]; sample MF 33 (CALR), ruxolitinib alone, read-out: IC50 RUX): 862 nM | IC50 ([1]; sample MF 38 (WT), ruxolitinib alone, read-out: IC50 RUX): 217 nM | IC50 ([1]; sample MF 54 (JAK2), ruxolitinib alone, read-out: IC50 RUX): 686 nM | IC50 ([1]; sample MF 63 (CALR), ruxolitinib alone, read-out: IC50 RUX): 70.6 nM | IC50 ([1]; sample MF 76 (JAK2), ruxolitinib alone, read-out: IC50 RUX): 686 nM | IC50 ([1]; sample MF 77 (JAK2), ruxolitinib alone, read-out: IC50 RUX): 528 nM
SMILES: N#CC[C@H](C1CCCC1)n1cc(-c2ncnc3[nH]ccc23)cn1 [ruxolitinib]
